Results published in US8288548B2, “Oxazolo[5-4-b]pyridin-5-yl compounds” (Eli Lilly and Company, priority 2010, dated 2012).
Several values for one entry are separate records, joined by “and”; a condition that tells them apart may be missing. Equal values may be shown once.

Legend:
p38β MAP kinase = target: T1, p38β MAP kinase (Homo sapiens, UniProt Q15759); test: Inhibition of p38β MAP kinase enzyme activity; assay type: biochemical; details: 20 μM ATP
T1 construct: purchased Upstate Biotechnology/Millipore
T1 sequence (Q15759 whole entry): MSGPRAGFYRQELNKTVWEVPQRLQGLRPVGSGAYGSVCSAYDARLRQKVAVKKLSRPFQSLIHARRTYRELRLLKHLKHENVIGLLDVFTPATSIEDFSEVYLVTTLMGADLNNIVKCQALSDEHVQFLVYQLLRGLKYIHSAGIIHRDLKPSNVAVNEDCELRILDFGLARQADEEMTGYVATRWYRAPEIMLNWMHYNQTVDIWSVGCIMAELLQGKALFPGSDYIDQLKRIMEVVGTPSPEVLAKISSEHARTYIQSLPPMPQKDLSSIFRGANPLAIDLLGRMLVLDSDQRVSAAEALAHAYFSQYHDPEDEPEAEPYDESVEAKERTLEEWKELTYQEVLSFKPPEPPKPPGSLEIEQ
Method: The kinase reaction buffer is prepared essentially as described above. The substrate mix is prepared by combining the following: 2840 μL Kinase Reaction Buffer, 15.0 μL ATP at 10 mM, 125 μL EGFR peptide at 4 mM (9.174 mg/ml), 18.75 μL ^33P-ATP. The p38β MAP kinase enzyme stock solution is prepared by diluting 2.25 μL of a 0.57 mg/mL solution of commercial p38β MAP kinase (Upstate Biotechnology/Millipore) in 2000 μL of reaction buffer. Stock solutions of test compounds are generated essentially as described above.
The kinase assay is performed essentially as described for p38α MAP kinase. Final reaction conditions are as follows: 25 mM HEPES pH 7.5, 4.25 mM MgCl2, 1.30 mM DTT, 0.004% TRITON® X-100, 20 μM ATP, 65 μM EGFR peptide, 0.25 ng/μL p38β MAP kinase, 4% DMSO. […] For example, Example 1 has an IC50=0.007 μM.

p38 MAP kinase [1] = test: Inhibition of p38 MAP kinase in the cell-based assay (p-MAPKAPK2 cELISA, TNFα-stimulated HeLa cells); details: Homo sapiens, TNFα stimulation, read-out: Relative IC50
p38 MAP kinase [2] = test: In vivo target inhibition (IVTI) of p38 MAP kinase in naïve C57BL/6 mice (p-MAPKAPK2 in PBMCs, flow cytometry); details: 2 hours post-dose
Method: IVTI of p38 MAP kinase is measured in peripheral blood mononuclear cells (PBMCs) of mice dosed orally with test compound using a flow cytometry assay for p-MAPKAPK2, a p38 MAP kinase substrate.
Male C57BL/6 mice (6-8 weeks old) are randomized into groups of 4. Test compound is administered by oral gavage in a 0.1 mL volume of vehicle (1% hydroxyethyl cellulose (HEC), 0.25% TWEEN® 80, 0.05% antifoam). Control animals are administered 0.1 mL vehicle with no test compound. For single dose and dose response studies, animals are sacrificed 2 hour post-dose. For time-course studies, animals are sacrificed at different time-points post-dose, typically, 1, 2, 4, 6, 18 and 24 hours. Whole blood is collected in EDTA-coated tubes (AQUISEL).
100 μL mouse whole blood is added into each EDTA tube and incubated at 37° C. for 10 minutes. […]
Samples are incubated at RT for 30 minutes. […] Samples are analyzed by flow cytometry (FACScaliber, BD). After defining the viable single cell population by side and forward scatter, the level of p-MAPKAPK2 is measured in the monocyte population defined (gated) by CD11b^hiLy6G^−.
The median fluorescence intensity in the monocyte cells is analyzed to determine the level of p-MAPKAPK2. […] Percent inhibition by test compound is determined by using the following equation: […]

COCC[C@H](C)Nc1nc2ccc(-c3nc(C(C)(C)CO)[nH]c3-c3ccc(F)cc3F)nc2o1 [Example 1, 2-[5-(2,4-Difluorophenyl)-4-[2-[[(1S)-3-methoxy-1-methyl-propyl]amino]oxazolo[5,4-b]pyridin-5-yl]-1H-imidazol-2-yl]-2-methyl-propan-1-ol] was tested, and the IC50 (p38β MAP kinase) was 7 nM, the IC50 (p38 MAP kinase [1]) was 1.6 nM and the “Threshold Efficacious Dose for 70% inhibition (TED70)” value (p38 MAP kinase [2]; oral, PBMCs) was 5.1 mg/kg. For the same compound, the “Threshold Efficacious Concentration for 70% inhibition (TEC70)” value (p38 MAP kinase [2]; plasma) was 39.4 ng/mL and 0.084 μM.
